From patent publication US11045519B2, “Arginine-rich polypeptide compositions and methods of using same” (UNM Rainforest Innovations, priority 2017, dated 2021)

Experiments:
[1] = test system: HPV16 PsVs; assay: HPV16 PsV binding to HaCaT cells at 4° C. (L1 immunoblot / immunofluorescence); assay type: cell-based
Experimental: FIG. 4. PolyR treatment of host cells inhibits HPV16 binding to cells. (A) Confluent HaCaT cell monolayers were treated with 1 μM polyR (in CM) for 30 minutes, before adding 100 vge/cell HPV16 PsVs, and incubated at 4° C. for one hour (to promote binding but prevent virus internalization). After washing out of unbound virus, cells were lysed (25 mM Tris pH7.5, 150 mM NaCl, 1% Triton-X100 supplemented with protease inhibitors) and centrifuged at 16,000×g for 10 minutes. Protein concentrations in supernatant were measured using the Bradford method (Bio-Rad Laboratories, Inc., Hercules, Calif.). Samples were boiled in SDS-containing sample buffer, and aliquots containing equal amount of protein ([…] to 200 μg) separated by SDS-polyacrylamide gel electrophoresis (SDS-PAGE), using 10% gel. Proteins were transferred onto polyvinylidene difluoride (PVDF) membranes and subjected to analysis using anti-HPV16 L1 primary antibody (Camvir-1, sc-47699, Santa Cruz Biotechnology, Inc., Dallas, Tex.;1:5000 dilution) for detection of HPV16 major capsid protein, L1. Proteins were visualized by enhanced chemiluminescence (SUPERSIGNAL West Pico Chemiluminescent Substrate, Thermo Fisher Scientific, Inc., Waltham, Mass.) and exposed to film (Phenix Research Products, Candler, N.C.). (B) Immunofluorescence assays were performed essentially as described previously (Surviladze et al., 2012. PLoS Pathogens 8:e1002519). HaCaT cells were grown on coverslips at approximately 50% confluence and treated with 3 μM polyR for 30 minutes at 37° C. before the addition of 1000 vge of HPV16 PsVs per coverslip. Cells were incubated for one hour at 4° C. and washed several times with PBS, before the fixation with 4% paraformaldehyde (PFA). BSA-blocked cells were incubated with rabbit polyclonal HPV16 antibody (antibody was affinity-purified from rabbit anti-HPV VLP antisera). PBS-washed slides were incubated with donkey AF488-conjugated anti-rabbit IgG secondary antibody; phalloidin-rhodamine (Cytoskeleton, Inc., Denver, Colo.) was used for actin staining. After extensive washing with PBS, cells were mounted in Gold Antifade and immunofluorescent (IF) images were captured by confocal photo-microscopy.
(A) HPV16 PsVs were bound to HaCaT cells (one hour at 4° C.), before the addition of […]. After a one-hour incubation at 4° C., unbound virus was washed out, cells were lysed and analyzed for the content of HPV L1 protein. (B) HaCaT cells were exposed to HPV 16 PsV at 4° C. in the absence of polyR, simultaneously with polyR (0 h), or one hour after polyR treatment (+1 h). After extensive washing with PBS, cells were lysed and analyzed for the content of HPV16 L1 protein.
FIG. 16. PrS pretreated cells binding of HPV16. Confluent HaCaT cell monolayers were treated with 1 μM PrS (in CM) before the addition of 200 vge/cell HPV16 PsVs and incubated at 4° C. for one hour (conditions to prevent virus internalization). After washing out of unbound virus, cells were lysed (25 mM Tris pH7.5, 150 mM NaCl, 1% Triton-X100 supplemented with protease inhibitors) and centrifuged at 16,000×g for 10 minutes. Protein concentrations in supernatant were measured using the Bradford method (Bio-Rad Laboratories, Inc., Hercules, Calif.). Samples were boiled in SDS-containing sample buffer, and aliquots containing equal amount of protein (˜50 μg to 200 μg) separated by SDS-polyacrylamide gel electrophoresis (SDS-PAGE) using 10% gel. […]

[2] = test system: HPV16 PsVs; assay: Co-localization of HPV16 PsV with endosomal marker CD63 in HaCaT cells (confocal microscopy); assay type: cell-based; details: 1 μM added 1 h after PsVs, further 7 h
Experimental: FIG. 9. PolyR inhibits HPV16 L2 protein cleavage by furin and induces accumulation of internalized virus particles in late endosomal fraction. (A) Equal amount of HPV16 diluted in 50 μl furin assay buffer (1 mM CaCl2), 100 mM HEPES, 0.5% Triton X-100, 1 mM β-mercaptoethanol) was loaded into six tubes, and subsequently incubated for two hours at 30° C. without any inhibitor, in the presence of 1.3 μM furin inhibitor1 (Merck Millipore Corp., Burlington, Mass.), or 1 μM polyR. Samples were mixed with SDS-PAGE sample buffer and boiled before fractionation on 9% gel. Proteins were transferred onto PVDF membranes and after blocking, incubated with affinity-purified rabbit anti-HPV16 polyclonal antibody. Secondary donkey anti-rabbit horseradish peroxidase-coupled antibody was used for detection of HPV16 capsid proteins. (B) HaCaT cells grown on coverslips were incubated with HPV16 PsVs for one hour at 37° C. to initiate virus binding (and partial internalization) before adding 1 μM polyR and further incubated for seven hours. After the incubation, cells were fixed and stained for HPV16 and endogenous CD63, using primary anti-HPV16 rabbit polyclonal and anti-CD63 mouse monoclonal antibodies (Santa Cruz Biotechnology, Inc., Dallas, Tex.). […]

Substance: poly-L-arginine [polyR]
- HPV16 binding to pre-treated cells (L1 immunoblot) ([1]; 1 μM, 30 min pre-treatment, 100 vge/cell, 4° C. 1 h): almost completely blocked HPV16 binding
- HPV16 bound to cell surface (confocal microscopy) ([1]; 3 μM, 30 min pre-treatment, 4° C. 1 h): dramatically reduced detection of HPV bound to the cell surface
- reduction of HPV binding to cells ([1]; polyR and HPV added simultaneously, 4° C.): ≈ 50%
- co-localization of HPV16 and CD63 [2]: significantly increased co-localization of HPV16 and CD63
